Laboratory results as given in patent publication US10577399B2, “Modified lantibiotics and methods of making and using the modified lantibiotics” (priority 2016, dated 2020).
≈ marks a conversion by molar mass, not a printed value. Where two headings read alike, the source gives them in different places. No end group written: not given here.

Assays:
S. aureus ATCC 25923 = assay: MIC/MLC assay against S. aureus; format: cell-based, Staphylococcus aureus; settings: Table 11
M. luteus ATCC 10240 = format: cell-based, Micrococcus luteus; settings: for M. luteus ATCC 10240 MIC / M. luteus ATCC 10240 MLC: Table 11; for MIC (μg/mL) M. luteus: Table 7, chemically modified analogs
Procedure: (§1) Minimum Inhibitory Concentrations (MICs) were determined according to previously published protocol^31. A stock solution of the antibiotics tested was first suspended in 50% acetonitrile (ACN) at a concentration 640 μg/mL. This stock was subsequently diluted 2-fold until a final concentration 0.156 μg/mL was reached. Subsequently, 10 μl of each dilution was placed into a well on a 96 well microtiter plate. M. luteus ATCC 10240, S. pneumoniae, and B. subtilis PY79 were grown overnight in THyex at 37° C. Cultures were diluted in the morning to 0.1 OD600 and allowed to grow to 0.6 OD600. This culture was diluted a 100-fold in fresh THyex media and then 400 μl of this culture was added to 10 mL of fresh THyex. The suspension contains approximately 10^5 colony forming units (CFUs). The bacterial suspension (190 μL) was added to each well containing 10 μL of antibiotic suspension or solvent blank. […] Following the 15 minute pretreatment, 190 μL was added to each well as described above. The MIC is described as the […] concentration of antibiotic that prevented visible growth after 24 hours.
FIG. 11 illustrates the bioactivity of various core peptide mutants of mutacin 1130. The activity of the core mutant peptides is expressed as a ratio of the area of the zone of inhibition of each mutant strain to the area of the zone of inhibition of the wild-type strain against indicator strain of Micrococcus luteus. […] The deferred antagonism assay is an overlay assay of the indicator strain onto plates containing heat killed colonies of the mutacin producer strain after growing overnight. Core peptide mutants having inhibitory activity were isolated and the purified products were further evaluated by a standard minimum inhibitory concentration (MIC) assay.

C. accolens KPL 1818 = assay: MIC/MLC assay against C. accolens KPL 1818; format: cell-based; settings: THyex broth with 1% Tween 80
S. pneumoniae ATCC 27336 = format: cell-based, Streptococcus pneumoniae; settings: for S. pneumonia ATCC 27336 MIC / S. pneumonia ATCC 27336 MLC: Table 11; for MIC (μg/mL) S. pneumoniae: Table 7, S. pneumoniae ATCC 27336
Procedure: as §1, with “hours. […]” for “hours.”

C. accolens ATCC 49725 = assay: MIC/MLC assay against C. accolens ATCC 49725; format: cell-based; settings: THyex broth with 1% Tween 80
[1] = listed as diaminoheptane conjugate

Row | Molecule | S. aureus ATCC 25923 MIC (S. aureus ATCC 25923) [micrograms per milliliter] | S. aureus ATCC 25923 MLC (S. aureus ATCC 25923) [micrograms per milliliter] | M. luteus ATCC 10240 MIC (M. luteus ATCC 10240) [micrograms per milliliter] | M. luteus ATCC 10240 MLC (M. luteus ATCC 10240) [micrograms per milliliter] | C. accolens KPL 1818 MIC (C. accolens KPL 1818) [micrograms per milliliter] | C. accolens KPL 1818 MLC (C. accolens KPL 1818) [micrograms per milliliter] | S. pneumonia ATCC 27336 MIC (S. pneumoniae ATCC 27336) [micrograms per milliliter] | S. pneumonia ATCC 27336 MLC (S. pneumoniae ATCC 27336) [micrograms per milliliter] | C. accolens ATCC 49725 MIC (C. accolens ATCC 49725) [micrograms per milliliter] | C. accolens ATCC 49725 MLC (C. accolens ATCC 49725) [micrograms per milliliter] | MIC (μg/mL) S. pneumoniae (S. pneumoniae ATCC 27336; listed as di-chlorophenylalanine conjugate) [µg/mL] | MIC (μg/mL) M. luteus (M. luteus ATCC 10240; listed as chlorophenylalanine conjugate) [µg/mL] | MIC (μg/mL) M. luteus (M. luteus ATCC 10240) [µg/mL] | MIC (μg/mL) S. pneumoniae (S. pneumoniae ATCC 27336) [µg/mL] | MIC (μg/mL) M. luteus (M. luteus ATCC 10240; [1]) [µg/mL] | MIC (μg/mL) S. pneumoniae (S. pneumoniae ATCC 27336; [1]) [µg/mL]
1 | S5A:A12S dehydrated: core peptide mutant of mutacin 1140, positions 5, 12 replaced by Alanine and Serine; dehydrated form (FKSWALCTPGCSRTGSFNSYCC; ends and bridges not checked; also: dehydrated form; UniProt O68586 42-63, looked up, variant S5A A12S) | 16 | 32 | 0.125 | 0.25 | 0.5 | 1 | 0.125 | 0.125 | 0.25 | 0.25 | – | – | – | – | – | –
2 | R13A:T14A: core peptide mutant of mutacin 1140, positions 13, 14 replaced by Alanine and Alanine (FKSWSLCTPGCAAAGSFNSYCC; UniProt O68586 42-63, looked up, variant R13A T14A) | 32 | 32 | 0.25 | 0.5 | 0.5 | 0.5 | 2 | 2 | 0.5 | 0.5 | – | – | – | – | – | –
3 | A12T:T14G: core peptide mutant of mutacin 1140, positions 12, 14 replaced by Threonine and Glycine (FKSWSLCTPGCTRGGSFNSYCC; ends and bridges not checked; cysteine pairing not given here; UniProt O68586 42-63, looked up, variant A12T T14G) | >32 | >32 | 0.25 | 0.25 | 0.5 | 1 | 2 | 2 | 0.125 | 0.25 | – | – | – | – | – | –
4 | S5G:T14G: core peptide mutant of mutacin 1140, positions 5, 14 replaced by Glycine and Glycine (FKSWGLCTPGCARGGSFNSYCC; ends and bridges not checked; cysteine pairing not given here; UniProt O68586 42-63, looked up, variant S5G T14G) | 8 | 16 | 0.5 | 0.5 | 0.5 | 1 | 2 | 2 | 1 | 1 | – | – | – | – | – | –
5 | C=C1NC(=O)[C@H](Cc2c[nH]c3ccccc23)NC(=O)[C@H](NC(=O)[C@H](CCCCN)NC(=O)[C@@H](N)Cc2ccccc2)CSC[C@@H](C(=O)N[C@H]2C(=O)N3CCC[C@H]3C(=O)NCC(=O)N[C@H](C(=O)N[C@@H](C)C(=O)N[C@@H](CCCNC(=N)N)C(=O)N/C(=C\C)C(=O)NCC(=O)N[C@@H]3CSC[C@@H]4NC(=O)[C@H](Cc5ccc(O)cc5)NC(=O)[C@@H](CSC[C@@H](C(=O)NCc5ccc(Cl)c(Cl)c5)NC4=O)NC(=O)[C@H](CC(N)=O)NC(=O)[C@H](Cc4ccccc4)NC3=O)CS[C@H]2C)NC(=O)[C@H](CC(C)C)NC1=O [Mutacin 1140 - di-chlorophenylalanine] | – | – | – | – | – | – | – | – | – | – | 8.0 (≈ 3.24 µM) | – | – | – | – | –
6 | C=C1NC(=O)[C@H](Cc2c[nH]c3ccccc23)NC(=O)[C@H](NC(=O)[C@H](CCCCN)NC(=O)[C@@H](N)Cc2ccccc2)CSC[C@@H](C(=O)N[C@H]2C(=O)N3CCC[C@H]3C(=O)NCC(=O)N[C@H](C(=O)N[C@@H](C)C(=O)N[C@@H](CCCNC(=N)N)C(=O)N/C(=C\C)C(=O)NCC(=O)N[C@@H]3CSC[C@@H]4NC(=O)[C@H](Cc5ccc(O)cc5)NC(=O)[C@@H](CSC[C@@H](C(=O)NCc5ccc(Cl)cc5)NC4=O)NC(=O)[C@H](CC(N)=O)NC(=O)[C@H](Cc4ccccc4)NC3=O)CS[C@H]2C)NC(=O)[C@H](CC(C)C)NC1=O [Mutacin 1140 - chlorophenylalanine] | – | – | – | – | – | – | – | – | – | – | – | 1.0 (≈ 0.411 µM) | – | – | – | –
7 | C=C1NC(=O)[C@H](Cc2c[nH]c3ccccc23)NC(=O)[C@H](NC(=O)[C@H](CCCCN)NC(=O)[C@@H](N)Cc2ccccc2)CSC[C@@H](C(=O)N[C@H]2C(=O)N3CCC[C@H]3C(=O)NCC(=O)N[C@H](C(=O)N[C@@H](C)C(=O)N[C@@H](CCCNC(=N)N)C(=O)N/C(=C\C)C(=O)NCC(=O)N[C@@H]3CSC[C@@H]4NC(=O)[C@H](Cc5ccc(O)cc5)NC(=O)[C@@H](CSC[C@@H](C(=O)NC)NC4=O)NC(=O)[C@H](CC(N)=O)NC(=O)[C@H](Cc4ccccc4)NC3=O)CS[C@H]2C)NC(=O)[C@H](CC(C)C)NC1=O [Mutacin 1140 - methylamine] | – | – | – | – | – | – | – | – | – | – | – | – | 0.125 (≈ 0.0538 µM) | 0.5 (≈ 0.215 µM) | – | –
8 | S5A:A12S un-dehydrated: core peptide mutant of mutacin 1140, positions 5, 12 replaced by Alanine and Serine; un-dehydrated form (FKSWALCTPGCSRTGSFNSYCC; ends and bridges not checked; cysteine pairing not given here; UniProt O68586 42-63, looked up, variant S5A A12S) | 16 | 16 | 0.125 | 0.25 | – | – | 0.125 | 0.125 | – | – | – | – | – | – | – | –
9 | C=C1NC(=O)[C@H](Cc2c[nH]c3ccccc23)NC(=O)[C@H](NC(=O)[C@H](CCCCN)NC(=O)[C@@H](N)Cc2ccccc2)CSC[C@@H](C(=O)N[C@H]2C(=O)N3CCC[C@H]3C(=O)NCC(=O)N[C@H](C(=O)N[C@@H](C)C(=O)N[C@@H](CCCNC(=N)N)C(=O)N/C(=C\C)C(=O)NCC(=O)N[C@@H]3CSC[C@@H]4NC(=O)[C@H](Cc5ccc(O)cc5)NC(=O)[C@@H](CSC[C@@H](C(=O)NCCCCCCCN)NC4=O)NC(=O)[C@H](CC(N)=O)NC(=O)[C@H](Cc4ccccc4)NC3=O)CS[C@H]2C)NC(=O)[C@H](CC(C)C)NC1=O [Mutacin 1140 - diaminoheptane] | – | – | – | – | – | – | – | – | – | – | – | – | 0.25 (≈ 0.103 µM) | – | 0.5 (≈ 0.206 µM) | 2.0 (≈ 0.825 µM)
